This is an account of results in patent US20200188477A1, “A MEDICAMENT FOR THE TREATMENT OF DISEASES BY BIOFILM FORMING MICROORGANISMS” (priority 2017, published 2020).

The test system of this assay is M. smegmatis. Kind of assay: microbe, parasite or virus in culture. Type of assay: cell-based, Mycobacterium smegmatis. Conditions: for MIC: Mycolicibacterium smegmatis.

Molecules are shown by their SMILES. Converted amounts (≈) assume the structure as drawn. Read-outs that look alike come from different tables or passages of the source.

Regarding `CC[C@@H](CO)NCCN[C@@H](CC)CO` [ethambutol], the “concentration that inhibits culture” value (absence of cyclosporine A, […]) is 4 µg/mL. Further, the “inhibitory effect on culture” value (presence of cyclosporine A, […]) is listed as “enhanced”.

In the case of `NNC(=O)c1ccncc1` [isoniazide], the MIC reads like this: (absence of acarbose, PpiB (Tet+), read-out: MIC) 64 µg/mL (≈ 467 µM); (absence of acarbose, VC (Tet+), read-out: MIC) 16 µg/mL (≈ 117 µM); (absence of cyclosporine A, PpiB (tet+), read-out: minimum inhibitory concentration (MIC)) 64 µg/mL (≈ 467 µM); (absence of cyclosporine A, […], read-out: minimum inhibitory concentration (MIC)) 16 µg/mL (≈ 117 µM); (presence of acarbose, PpiB (Tet+), read-out: MIC) 32 µg/mL; (presence of cyclosporine A, PpiB (tet+), read-out: MIC) 32 µg/mL. Also, the MIC (presence of cyclosporine A, […], read-out: MIC) was 8 µg/mL.
